“And” between values parts separate entries of the source, which are not always exact repeats. Equal entries are not always repeated. “Also recorded” adds a separate entry of the source.
What was measured:
[1] = tested on: fibroblasts from patients harboring mitochondrial mutations (Leigh Syndrome/LHON, MELAS, KSS) and MERRF cybrid cell line; experiment: Gene expression analysis in cells harboring mitochondrial mutations; type: cell-based, human; details: for ACADVL expression: FIG. 3C
Text: Leigh syndrome/Leber's hereditary optic neuropathy (LHON) cells were isolated from a patient diagnosed with both Leigh syndrome and LHON. This subject had two point mutations; one in the mtDNA-encoded ND4 gene (mutation 11778G>A) and one in the mtDNA encoded ND6 gene (mutation 14484T>C) in the NADH dehydrogenase complex. m.3243A>G MELAS (Mitochondrial encephalomyopathy, lactic acidosis, and stroke-like episodes) cells were isolated from a patient harboring the m.3243A>G mutation in the mtDNA-encoded tRNA-leucine gene. Kearns Sayre Syndrome (KSS) fibroblast cells were isolated from a patient harboring the 5 kilobase (Kb) common deletion and were obtained from the Coriell Institue along with a control fibroblast cell line. MERRF m.8344A>G osteosarcoma transmitochondrial cybrids were acquired from the Moraes lab (Masucci, J. P., M. P. Schon Ea Fau-King, and M. P. King, Point mutations in the mitochondrial tRNA(Lys) gene: implications for pathogenesis and mechanism. (0300-8177)).
MELAS m.3243A>G fibroblasts were grown in Eagle's minimum essential media (EMEM) supplemented with 10% heat inactivated FBS, 1 mM sodium pyruvate, 1× non-essential amino acids, 2 mM 1-glutamine, and 100 μg/ml of uridine. KSS fibroblasts were grown in EMEM supplemented with 15% heat inactivated FBS, 1× non-essential amino acids, and 100 μg/ml of uridine. Leigh/LHON syndrome fibroblast cell lines were grown in Dulbecco's modified eagle medium (DMEM) supplemented with 1 mM sodium pyruvate, 10% HI FBS, and 100 μg/ml of uridine. MERRF tRNA-LYS 8344 cybrid cells were grown in DMEM supplemented with 10% heat inactivated FBS, 1 mM sodium pyruvate and 100 μg/ml of uridine.
All cell lines with the exception of LHON/Leigh Syndrome fibroblasts were plated at a density of 50 k/well in 6 well plates. Compound (I) or 0.1% DMSO was added 8 hours later in complete media. Treatment media or vehicle media were refreshed 24 hours later for a total treatment time of 48 hours. LHON/Leigh Syndrome fibroblasts were plated and treated in the same manner but for a total treatment time of 24 hours.
mTotal RNA was isolated using NucleoSpin® kits (Macherey-Nagel) as per manufacturer's protocol. One microgram of total RNA was used to generate cDNA using the High-Capacity cDNA Reverse Transcription Kit (Applied Biosystems).
MELAS m.3243A>G fibroblasts, KSS Fibroblast and MERRF tRNA-Lys 8344 cybrid gene expression was performed using 5 ng cDNA and 300 nM of primers were mixed with water and iQ SYBR Green master mix, loaded in 384-well qPCR plates, and subsequently analyzed using a BioRad CFX384 Real-Time PCR Detection System. Fold change was calculated as ΔCt on a per sample basis was calculated as Ct (Gene of interest)−Ct (Average of reference genes). The ΔΔCt was then calculated as ΔCt (experimental sample)−Average ΔCt (control group). Fold change was calculated as 2^−ΔΔCT. LHON/Leigh Syndrome fibroblast cDNA was mixed with dH2O and SYBR Green master mix and 1 μM of primers were dispensed into the sample source plates and primer source plates in 384-well plates, respectively. Reactions were loaded into SmartChip (WaferGen Bio-systems) with Multisample Nanodispenser and the chip was analyzed in the SmartChip Cycler.
Raw expression data was exported from software and graphed after processing with reference genes and normalized against control using QBase software. To obtain normalized values, the calibrated normalized relative quantities (CNRQ) values of each sample were divided by the average CNRQ for all vehicle treated samples in order to make expression relative to the control group.

[2] = tested on: aged Diet-Induced Obese (DIO) C57BL/6NTac mice; experiment: Forced exhaustion running, activity and body composition in aged DIO mice; type: in vivo, mouse; details: 30 mg/kg
Procedure: All animal studies were performed in accordance with Charles River Laboratories animal welfare protocols. Male Diet-Induced Obese (DIO) C57BL/6NTac mice 28 weeks of age were fed a high fat diet. 20 mice were randomized based on bodyweight into two cohorts of 10 mice each. Five mice were assigned to each treatment group in each cohort (i) vehicle or (ii) Compound (I) at 30 mg/kg via (n=10 total animals per treatment). Groups were dosed orally by gavage, once daily for 45 days at the start of the dark cycle. Mice were acclimatized to the treadmill room for one hour on days of training or endurance runs. After an initial 5 min exploration period the treadmill belt moved at 5 m/min for 10 min with the motivation grid intensity set to 0.46 mA. Mice required a few visits to the grid to learn to walk/run on the moving belt and avoid the electric grid shock. After two acclimatization periods the mice learned to avoid the electric grid and stay on the moving belt, with fewer visits to the electric grid. The maximum speed for the endurance run was capped at 16.5 m/min based on speed acclimation runs, which represents the speed at which 25% of animals are running in the top ⅔ of the treadmill at a 5° slope. The mice were considered exhausted if they stayed on the electric grid with no limbs on the treadmill belt for 10 seconds.
Endurance was calculated as a Fatigue Index; this accounts for distance traveled, time on the treadmill, the number of breaks in running, and the length of those breaks. The cumulative number of stimulations for individual animals was plotted over time and the area under the curve (AUC) was calculated. AUC was divided by the distance individual animals completed during the course of the fatigue run to obtain the Fatigue Index. Voluntary activity is defined as the total number of X and Y axis laser beam breaks and rearing is defined as the total number of Z axis breaks per treatment group.

[3] = 5 weeks, vs vehicle, FIG. 6D-6E

For `Cc1cnc(-c2ccc(C(F)(F)F)cc2)n1Cc1ccccc1OCCC[C@@H](C)CC(=O)O` [Compound (I), (R)-3-Methyl-6-(2-((5-methyl-2-(4-(trifluoromethyl)phenyl)-1H-imidazol-1-yl)methyl)-phenoxy)hexanoic acid], the PDK4 transcript increase ([1]; 24 or 48 hour treatment, across all four cell lines tested, FIG. 3B) was 10 to 50 fold and 10 to 100 fold, the “ANGPTL4 induction (marker of target engagement)” value ([1]; 24 or 48 hours treatment, FIG. 3A) was “large induction; also recorded: greatly induced” and the ACADVL expression ([1]; MELAS and MERRF cells, n=2, no statistical comparison) was “showed induction”. The CPT1A transcript induction ([1]; across all cell lines tested, FIG. 3D) was “approximately 2 fold”, the SLC25A20 expression ([1]; across all four cell lines tested, FIG. 3E) was “induced” and the “Genes involved in the import, packaging and catabolism of fatty acids into the mitochondria for OXPHOS” value ([1]; across four cell lines with mitochondrial mutations, FIG. 3C-3E) was “upregulated”. For the same compound, the ACADVL expression ([1]; two of the lines tested) was “significantly upregulated”, the “rate of falls in the motivational grid” value ([2]; 5 weeks, FIG. 5F) was “decrease” and the run distance ([2]; 5 weeks, FIG. 5H) was “no change”. For the same compound, the “Fatigue Index” value ([2]; 5 weeks, vs vehicle, FIG. 5I) was “less fatigued”, the rearing [2, 3] was “trend towards increased” and the voluntary activity [2, 3] was “trend towards increased; also recorded: No statistically significant differences”. The body weight ([2]; during the study, FIG. 6B) was “did not alter” and the body composition ([2]; during the study, FIG. 6C) was “did not alter; also recorded: No statistically significant differences”.

Reference: patent publication US20240358681A1, “METHODS OF USE OF PPAR AGONIST COMPOUNDS AND PHARMACEUTICAL COMPOSITIONS THEREOF” (Mitobridge, Inc., priority 2021, published 2024)
